Data published in ChEMBL document CHEMBL5528048, “Discovery of Novel Potent and Fast BTK PROTACs for the Treatment of Osteoclasts-Related Inflammatory Diseases” (J Med Chem, 2024).
The source made the active and inactive calls. The rule behind the calls is not given here.

How the values were obtained:
[1] = molecular target: T1, Protein cereblon/Tyrosine-protein kinase BTK (Mus musculus) (UniProt P35991+Q8C7D2); test: PROTAC activity at BTK/CRBN in mCSF/RANKL-stimulated C57BL/6J mouse BMDM assessed as reduction in phosphorylated ERK protein level at 25 to 100 nM followed by stimulated with mCSF/RANKL measured after 2 hrs by Western blotting analysis; type: cell-based; conditions: dose 25-100 nM
T1 sequence (P35991 whole entry, looked up): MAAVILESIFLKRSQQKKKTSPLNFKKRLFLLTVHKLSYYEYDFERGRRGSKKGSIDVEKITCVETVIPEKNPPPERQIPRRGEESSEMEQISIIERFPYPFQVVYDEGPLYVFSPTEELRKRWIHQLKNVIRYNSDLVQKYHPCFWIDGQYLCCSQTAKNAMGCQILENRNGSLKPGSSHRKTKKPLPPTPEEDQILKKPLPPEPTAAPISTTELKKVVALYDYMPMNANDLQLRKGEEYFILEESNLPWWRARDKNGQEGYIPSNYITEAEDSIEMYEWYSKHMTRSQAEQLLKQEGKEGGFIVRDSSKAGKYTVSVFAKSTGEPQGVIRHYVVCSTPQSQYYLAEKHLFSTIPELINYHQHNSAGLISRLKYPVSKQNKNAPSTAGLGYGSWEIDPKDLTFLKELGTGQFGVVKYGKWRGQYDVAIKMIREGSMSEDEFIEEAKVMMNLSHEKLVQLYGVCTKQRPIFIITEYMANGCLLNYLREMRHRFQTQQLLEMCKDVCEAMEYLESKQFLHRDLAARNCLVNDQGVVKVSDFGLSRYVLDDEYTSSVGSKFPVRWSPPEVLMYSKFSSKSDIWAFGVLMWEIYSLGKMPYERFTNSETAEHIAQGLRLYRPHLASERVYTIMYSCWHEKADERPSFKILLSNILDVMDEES
T1 sequence (Q8C7D2 whole entry, looked up): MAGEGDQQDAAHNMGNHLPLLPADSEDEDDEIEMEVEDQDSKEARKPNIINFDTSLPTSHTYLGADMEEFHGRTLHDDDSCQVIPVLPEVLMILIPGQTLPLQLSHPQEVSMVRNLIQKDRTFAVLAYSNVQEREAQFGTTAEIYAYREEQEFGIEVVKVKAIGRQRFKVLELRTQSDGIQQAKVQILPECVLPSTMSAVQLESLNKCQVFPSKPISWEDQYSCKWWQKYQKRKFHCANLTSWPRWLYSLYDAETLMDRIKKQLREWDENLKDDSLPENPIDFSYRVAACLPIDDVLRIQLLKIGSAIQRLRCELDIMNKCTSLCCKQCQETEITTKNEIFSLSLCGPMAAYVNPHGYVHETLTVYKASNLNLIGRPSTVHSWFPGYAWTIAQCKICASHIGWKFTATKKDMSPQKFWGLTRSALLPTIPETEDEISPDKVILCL

[2] = AUC (0 to infinity) in Sprague-Dawley rat at 2 mg/kg, iv measured upto 48 hrs; type: ADME, organism-based; conditions: in vivo
[3] = molecular target: Tyrosine-protein kinase BTK (Homo sapiens, UniProt Q06187); test: Inhibition of BTK (unknown origin) measured after 60 mins incubation by microtiter-plate reader
Tyrosine-protein kinase BTK, sequence (Q06187 whole entry): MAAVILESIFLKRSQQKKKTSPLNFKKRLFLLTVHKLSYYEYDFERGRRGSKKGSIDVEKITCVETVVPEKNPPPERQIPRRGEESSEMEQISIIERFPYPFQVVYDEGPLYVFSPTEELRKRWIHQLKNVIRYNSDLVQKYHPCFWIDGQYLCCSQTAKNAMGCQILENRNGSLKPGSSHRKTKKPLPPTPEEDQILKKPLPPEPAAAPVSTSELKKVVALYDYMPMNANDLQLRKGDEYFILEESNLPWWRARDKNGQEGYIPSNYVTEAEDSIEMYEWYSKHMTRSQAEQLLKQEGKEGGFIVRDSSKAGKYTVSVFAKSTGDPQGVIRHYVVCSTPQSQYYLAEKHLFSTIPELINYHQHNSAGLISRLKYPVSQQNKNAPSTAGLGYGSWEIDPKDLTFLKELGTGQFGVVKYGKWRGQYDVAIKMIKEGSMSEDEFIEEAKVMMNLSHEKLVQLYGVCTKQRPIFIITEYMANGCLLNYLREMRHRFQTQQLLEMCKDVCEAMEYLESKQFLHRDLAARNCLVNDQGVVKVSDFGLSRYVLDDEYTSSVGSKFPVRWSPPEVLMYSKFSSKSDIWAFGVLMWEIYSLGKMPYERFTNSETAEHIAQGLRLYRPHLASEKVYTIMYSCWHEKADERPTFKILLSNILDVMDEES

[4] = system: BMMC; test: Cytotoxicity against C57BL/6J mouse BMM cells assessed as cell viability at 10 uM measured after 1 to 2 hrs by CCK8 assay; type: toxicity, cell-based; conditions: time 1-2 hrs
[5] = molecular target: T2, Protein cereblon/Tyrosine-protein kinase BTK (Homo sapiens, UniProt Q06187+Q96SW2); test: Binding affinity to BTK/CRBN (unknown origin) assessed as ternary complex formation measured after 60 mins incubation by HTRF assay
Target sequence in this assay (Q06187 whole entry): as above
Target sequence in this assay (Q96SW2 whole entry): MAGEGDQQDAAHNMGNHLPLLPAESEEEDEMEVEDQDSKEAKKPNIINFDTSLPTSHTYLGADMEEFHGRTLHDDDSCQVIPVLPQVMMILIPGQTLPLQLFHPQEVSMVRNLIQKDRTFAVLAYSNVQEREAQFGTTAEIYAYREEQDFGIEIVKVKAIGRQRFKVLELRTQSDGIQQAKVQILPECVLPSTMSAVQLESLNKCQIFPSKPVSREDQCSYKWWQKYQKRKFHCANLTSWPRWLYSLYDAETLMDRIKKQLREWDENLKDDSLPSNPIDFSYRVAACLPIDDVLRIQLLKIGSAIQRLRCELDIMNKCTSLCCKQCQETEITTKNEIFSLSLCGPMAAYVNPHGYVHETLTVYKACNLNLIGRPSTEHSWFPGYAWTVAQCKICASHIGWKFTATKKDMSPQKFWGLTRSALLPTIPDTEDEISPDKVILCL

[6] = molecular target: T2, Protein cereblon/Tyrosine-protein kinase BTK; test: Binding affinity to BTK/CRBN (unknown origin) assessed as ternary complex formation by measuring peak HTRF ratio at wavelength 665/620 nm measured after 60 mins incubation by HTRF assay
Target sequence in this assay (Q06187 2-659 limits assumed): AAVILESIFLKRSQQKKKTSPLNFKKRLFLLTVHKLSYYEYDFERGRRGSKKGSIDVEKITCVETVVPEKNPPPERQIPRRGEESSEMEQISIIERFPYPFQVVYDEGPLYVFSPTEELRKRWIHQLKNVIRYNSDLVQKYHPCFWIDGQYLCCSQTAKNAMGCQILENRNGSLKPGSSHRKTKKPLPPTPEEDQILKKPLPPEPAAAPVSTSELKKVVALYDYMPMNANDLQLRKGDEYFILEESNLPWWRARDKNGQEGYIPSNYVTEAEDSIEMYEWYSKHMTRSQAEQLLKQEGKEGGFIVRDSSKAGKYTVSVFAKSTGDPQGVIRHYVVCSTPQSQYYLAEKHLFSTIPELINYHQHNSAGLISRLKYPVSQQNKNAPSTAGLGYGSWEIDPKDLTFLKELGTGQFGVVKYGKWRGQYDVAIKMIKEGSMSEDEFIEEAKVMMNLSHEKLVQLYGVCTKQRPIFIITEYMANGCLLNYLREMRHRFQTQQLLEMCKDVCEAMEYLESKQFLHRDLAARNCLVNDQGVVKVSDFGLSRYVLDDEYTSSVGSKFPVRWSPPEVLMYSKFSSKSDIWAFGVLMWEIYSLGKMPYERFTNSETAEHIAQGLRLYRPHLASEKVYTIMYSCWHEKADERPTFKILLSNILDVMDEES
Target sequence in this assay (Q96SW2 whole entry partner): as the sequence (Q96SW2 whole entry) above

[7] = system: Mus musculus; test: Antiosteoclastogenic effects in LPS-soaked ligature-induced C57BL/6J mouse periodontal disease model assessed as reduction in periodontal alveolar bone loss at 10 mg/kg, ip treated on day 0, 1,4, 7 and measured on day 10 by Micro-CT 3D scan; type: functional, organism-based; conditions: time 7.0 day
[8] = molecular target: T2, Protein cereblon/Tyrosine-protein kinase BTK; test: PROTAC activity at BTK/CRBN in human MINO cells assessed as BTK protein degradation measured for 4 hrs by Western blotting analysis; type: cell-based
Target sequence in this assay (Q06187 whole entry): as the sequence (Q06187 whole entry) above
Target sequence in this assay (Q96SW2 whole entry): as the sequence (Q96SW2 whole entry) above

[9] = system: BMMC; test: Inhibition of RANKKL-induced upregulation of osteoclast related genes in C57BL/6J mouse BMM cells assessed as reduction in mCSF/RANKL-stimulated CTSK gene expression at 25 to 100 nM followed by stimulated with mCSF/RANKL measured after 2 hrs by qPCR analysis; type: functional, cell-based; conditions: dose 25-100 nM
[10] = molecular target: T1, Protein cereblon/Tyrosine-protein kinase BTK (Mus musculus); test: PROTAC activity at BTK/CRBN in mCSF/RANKL-stimulated C57BL/6J mouse BMDM assessed as reduction in phosphorylated BTK protein level at 25 to 100 nM followed by stimulated with mCSF/RANKL measured after 2 hrs by Western blotting analysis; type: cell-based; conditions: dose 25-100 nM
[11] = molecular target: T2, Protein cereblon/Tyrosine-protein kinase BTK; test: PROTAC activity at BTK/CRBN in human MINO cells assessed as BTK protein degradation at 100 nM measured after 24 hrs by Western blotting analysis relative to control; type: cell-based
Target sequence in this assay (Q06187 2-659 limits assumed): as the sequence (Q06187 2-659 limits assumed) above
Target sequence in this assay (Q96SW2 whole entry partner): as the sequence (Q96SW2 whole entry) above

[12] = molecular target: T2, Protein cereblon/Tyrosine-protein kinase BTK; test: PROTAC activity at BTK/CRBN in human MINO cells assessed as BTK protein degradation pretreated with 2 uM ibrutinib followed by 1 hr treated at 20 nM measured after 48 hrs by Western blotting analysis; type: cell-based; conditions: dose […]
Target sequence in this assay (Q06187 2-659 limits assumed): as the sequence (Q06187 2-659 limits assumed) above
Target sequence in this assay (Q96SW2 whole entry partner): as the sequence (Q96SW2 whole entry) above

[13] = molecular target: T2, Protein cereblon/Tyrosine-protein kinase BTK; test: PROTAC activity at BTK/CRBN in human MINO cells assessed as BTK protein degradation pretreated with 2 uM bafilomycin followed by 1 hr treated at 20 nM measured after 48 hrs by Western blotting analysis; type: cell-based; conditions: dose […]
Target sequence in this assay (Q06187 2-659 limits assumed): as the sequence (Q06187 2-659 limits assumed) above
Target sequence in this assay (Q96SW2 whole entry partner): as the sequence (Q96SW2 whole entry) above

[14] = molecular target: T1, Protein cereblon/Tyrosine-protein kinase BTK (Mus musculus); test: PROTAC activity at BTK/CRBN in mCSF/RANKL-stimulated C57BL/6J mouse BMDM assessed as reduction in phosphorylated NFkappa-p65 protein level at 25 to 100 nM followed by stimulated with mCSF/RANKL measured after 2 hrs by Western blotting analysis; type: cell-based; conditions: dose 25-100 nM
[15] = AUC (0 to t) in Sprague-Dawley rat at 4 mg/kg, ip measured upto 48 hrs; type: ADME, organism-based; conditions: in vivo
[16] = system: BMMC; test: Inhibition of RANKKL-induced upregulation of osteoclast related genes in C57BL/6J mouse BMM cells assessed as reduction in mCSF/RANKL-stimulated NFATc1 gene expression at 25 to 100 nM followed by stimulated with mCSF/RANKL measured after 2 hrs by qPCR analysis; type: functional, cell-based; conditions: dose 25-100 nM
[17] = molecular target: T1, Protein cereblon/Tyrosine-protein kinase BTK (Mus musculus); test: PROTAC activity at BTK/CRBN in C57BL/6J mouse BMDM assessed as reduction in mCSF/RANKL-stimulated intracellular calcium influx by measuring fluorescence intensity measured after 2 hrs by Fluo-4/AM-fluorescent assay; type: cell-based; conditions: dose 25-100 nM

Activity [1]: Active | AUC(0-inf) [2]: 2350 ng·h/mL | IC50 [3]: 299 nM | EC50 [5]: 4.28 nM | Ratio [6]: 8.59 | DC50 [8]: 1.29 nM | Activity [10]: Active | Activity [11]: 99% | Activity [12]: inactive | Activity [13]: inactive | Activity [14]: Active | AUC(0-t) at 48 h [15]: 2800 ng·h/mL | Activity [17]: Dose-Dependent Effect
Structure (SMILES): Cc1cc(-c2nc(Nc3cnn(C4CCN(CC5CCN(c6ccc7c(c6)C(=O)N(C6CCC(=O)NC6=O)C7=O)CC5)CC4)c3)ncc2F)ccc1CNC(=O)c1cn(C(C)(C)C)nn1 (configuration not stated)
Activity [4]: Non-Toxic | Activity [7]: Active | inhibition [9]: Active | Activity [16]: Active
